Experimental data from publication PMC10046369, “Low-Affinity/High-Selectivity Dopamine Transport Inhibition Sufficient to Rescue Cognitive Functions in the Aging Rat” (Biomolecules, 2023).

How the values were obtained:
Assay in all cases: biochemical
Set-up in all cases: KINOMEscan competition binding panel, per cent of control
Conditions in all cases: read-out: %Ctrl @ 2800nM
TLK2 = TLK2 (Homo sapiens, UniProt Q86UE8)
Procedure: (§1) A panel of binding assays covering 450 human kinases and disease-relevant mutations was performed by DiscoverX (KINOMEscan®, Freemont, CA, USA) according to the standard and validated protocol defined by the contractor. […] Kinase binding assays This study was outsourced to DiscoverX (KINOMEscan®, Freemont, CA, USA) and is compliant with the corresponding project BUY004-01-p-00001. […] Results are reported as percent control (% Ctrl), where lower numbers indicate stronger hits in the matrix on the following page(s). %Ctrl calculation: ((test compound signal-positive control signal) / (negative control signal – positive control signal)) x 100.

BRSK2 = BRSK2 (Homo sapiens, UniProt Q8IWQ3)
Procedure: as §1

FLT1 = FLT1 (Homo sapiens, UniProt P17948)
Procedure: as §1

PKN1 = PKN1 (Homo sapiens, UniProt Q16512)
Procedure: as §1

PAK3 = PAK3 (Homo sapiens, UniProt O75914)
Procedure: as §1

MET(Y1235D) = MET(Y1235D) (Homo sapiens, UniProt P08581, Y1235D)
Procedure: as §1

RIPK5 = molecular target: T1, RIPK5 (Homo sapiens, UniProt Q6XUX3)
T1 construct: gene DSTYK
Procedure: as §1

[1] = molecular target: T2, ABL1(H396P)-nonphosphorylated (Homo sapiens, UniProt P00519, H396P)
T2 construct: nonphosphorylated
Procedure: as §1

PIK3CA(E545A) = PIK3CA(E545A) (Homo sapiens, UniProt P42336, E545A)
Procedure: as §1

NEK7 = NEK7 (Homo sapiens, UniProt Q8TDX7)
Procedure: as §1

FLT3(D835Y) = FLT3(D835Y) (Homo sapiens, UniProt P36888, D835Y)
Procedure: as §1

EPHA7 = EPHA7 (Homo sapiens, UniProt Q15375)
Procedure: as §1

SGK = molecular target: T3, SGK (Homo sapiens, UniProt O00141)
T3 construct: gene SGK1
Procedure: as §1

DRAK1 = molecular target: T4, DRAK1 (Homo sapiens, UniProt Q9UEE5)
T4 construct: gene STK17A
Procedure: as §1

PCTK1 = molecular target: T5, PCTK1 (Homo sapiens, UniProt Q00536)
T5 construct: gene CDK16
Procedure: as §1

[2] = molecular target: T6, ABL1(H396P)-phosphorylated (Homo sapiens, UniProt P00519, H396P)
T6 construct: phosphorylated
Procedure: as §1

PIK4CB = molecular target: T7, PIK4CB (Homo sapiens, UniProt Q9UBF8)
T7 construct: gene PI4KB
Procedure: as §1

[3] = molecular target: T8, RPS6KA5(Kin.Dom.1-N-terminal) (Homo sapiens, UniProt O75582)
T8 construct: Kin.Dom.1-N-terminal
Procedure: as §1

CAMK2D = CAMK2D (Homo sapiens, UniProt Q13557)
Procedure: as §1

FLT3(R834Q) = FLT3(R834Q) (Homo sapiens, UniProt P36888, R834Q)
Procedure: as §1

TAOK1 = TAOK1 (Homo sapiens, UniProt Q7L7X3)
Procedure: as §1

CDK4-cyclinD1 = molecular target: T9, CDK4-cyclinD1 (Homo sapiens, UniProt P11802)
T9 construct: cyclinD1
Procedure: as §1

IKK-beta = molecular target: T10, IKK-beta (Homo sapiens, UniProt O14920)
T10 construct: gene IKBKB
Procedure: as §1

DCAMKL3 = molecular target: T11, DCAMKL3 (Homo sapiens, UniProt Q9C098)
T11 construct: gene DCLK3
Procedure: as §1

MAP3K4 = MAP3K4 (Homo sapiens, UniProt Q9Y6R4)
Procedure: as §1

CAMKK2 = CAMKK2 (Homo sapiens, UniProt Q96RR4)
Procedure: as §1

FLT1, sequence (P17948 whole entry): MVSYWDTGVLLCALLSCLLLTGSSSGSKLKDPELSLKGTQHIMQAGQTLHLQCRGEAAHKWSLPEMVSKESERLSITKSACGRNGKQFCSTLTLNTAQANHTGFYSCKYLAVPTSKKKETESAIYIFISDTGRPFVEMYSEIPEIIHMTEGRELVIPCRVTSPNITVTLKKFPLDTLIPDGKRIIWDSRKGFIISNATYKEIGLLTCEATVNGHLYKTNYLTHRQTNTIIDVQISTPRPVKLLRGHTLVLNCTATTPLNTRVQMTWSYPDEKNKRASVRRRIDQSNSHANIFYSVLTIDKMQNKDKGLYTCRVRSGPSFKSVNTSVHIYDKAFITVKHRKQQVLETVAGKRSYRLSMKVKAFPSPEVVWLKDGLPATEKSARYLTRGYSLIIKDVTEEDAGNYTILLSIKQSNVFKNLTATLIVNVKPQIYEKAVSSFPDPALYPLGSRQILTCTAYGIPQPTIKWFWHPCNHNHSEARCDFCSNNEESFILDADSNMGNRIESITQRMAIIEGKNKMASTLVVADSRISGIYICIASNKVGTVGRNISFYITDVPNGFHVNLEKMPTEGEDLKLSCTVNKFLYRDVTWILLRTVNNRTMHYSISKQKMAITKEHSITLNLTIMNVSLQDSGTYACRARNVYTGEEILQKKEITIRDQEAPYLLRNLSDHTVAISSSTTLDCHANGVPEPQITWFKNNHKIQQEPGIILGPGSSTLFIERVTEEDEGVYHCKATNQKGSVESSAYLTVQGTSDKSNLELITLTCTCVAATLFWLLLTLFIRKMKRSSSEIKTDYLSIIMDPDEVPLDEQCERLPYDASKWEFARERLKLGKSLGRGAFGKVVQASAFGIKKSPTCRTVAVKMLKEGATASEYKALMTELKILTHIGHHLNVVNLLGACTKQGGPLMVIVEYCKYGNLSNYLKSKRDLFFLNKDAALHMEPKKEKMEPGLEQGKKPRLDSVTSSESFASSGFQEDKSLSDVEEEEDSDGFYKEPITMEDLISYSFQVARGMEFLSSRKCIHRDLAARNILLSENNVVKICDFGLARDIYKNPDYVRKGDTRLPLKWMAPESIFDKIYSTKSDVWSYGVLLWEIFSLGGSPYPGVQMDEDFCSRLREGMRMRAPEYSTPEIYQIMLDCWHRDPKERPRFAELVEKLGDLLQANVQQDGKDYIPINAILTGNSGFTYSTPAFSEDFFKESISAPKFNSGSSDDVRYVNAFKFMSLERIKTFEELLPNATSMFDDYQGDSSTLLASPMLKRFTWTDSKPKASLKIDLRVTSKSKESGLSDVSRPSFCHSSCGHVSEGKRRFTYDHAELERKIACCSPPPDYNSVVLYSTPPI
CAMK2D, sequence (Q13557 whole entry): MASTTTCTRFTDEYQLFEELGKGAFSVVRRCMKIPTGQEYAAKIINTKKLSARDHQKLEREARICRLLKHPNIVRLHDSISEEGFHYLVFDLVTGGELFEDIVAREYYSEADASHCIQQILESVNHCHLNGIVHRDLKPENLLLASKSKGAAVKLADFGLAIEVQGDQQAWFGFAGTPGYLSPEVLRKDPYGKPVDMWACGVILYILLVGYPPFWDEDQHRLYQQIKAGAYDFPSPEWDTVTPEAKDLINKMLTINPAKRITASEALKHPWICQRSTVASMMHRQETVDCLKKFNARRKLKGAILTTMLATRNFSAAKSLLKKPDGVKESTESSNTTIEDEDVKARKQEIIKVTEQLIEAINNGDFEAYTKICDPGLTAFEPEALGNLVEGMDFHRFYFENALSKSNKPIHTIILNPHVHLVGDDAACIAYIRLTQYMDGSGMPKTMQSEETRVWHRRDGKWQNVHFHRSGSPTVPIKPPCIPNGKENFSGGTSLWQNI
T4 sequence (Q9UEE5 whole entry): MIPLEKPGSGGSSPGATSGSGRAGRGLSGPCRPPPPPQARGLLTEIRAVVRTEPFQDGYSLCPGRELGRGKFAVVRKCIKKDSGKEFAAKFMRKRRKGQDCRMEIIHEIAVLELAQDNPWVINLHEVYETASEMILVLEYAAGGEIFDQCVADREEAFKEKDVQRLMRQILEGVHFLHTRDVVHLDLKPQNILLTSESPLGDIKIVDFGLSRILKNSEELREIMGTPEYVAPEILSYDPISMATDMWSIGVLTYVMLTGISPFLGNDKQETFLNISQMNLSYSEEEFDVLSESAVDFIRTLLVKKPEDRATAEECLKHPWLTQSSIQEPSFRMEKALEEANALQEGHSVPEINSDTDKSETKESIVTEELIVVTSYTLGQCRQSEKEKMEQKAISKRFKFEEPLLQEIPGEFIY
PIK3CA(E545A), sequence (P42336 whole entry E545A): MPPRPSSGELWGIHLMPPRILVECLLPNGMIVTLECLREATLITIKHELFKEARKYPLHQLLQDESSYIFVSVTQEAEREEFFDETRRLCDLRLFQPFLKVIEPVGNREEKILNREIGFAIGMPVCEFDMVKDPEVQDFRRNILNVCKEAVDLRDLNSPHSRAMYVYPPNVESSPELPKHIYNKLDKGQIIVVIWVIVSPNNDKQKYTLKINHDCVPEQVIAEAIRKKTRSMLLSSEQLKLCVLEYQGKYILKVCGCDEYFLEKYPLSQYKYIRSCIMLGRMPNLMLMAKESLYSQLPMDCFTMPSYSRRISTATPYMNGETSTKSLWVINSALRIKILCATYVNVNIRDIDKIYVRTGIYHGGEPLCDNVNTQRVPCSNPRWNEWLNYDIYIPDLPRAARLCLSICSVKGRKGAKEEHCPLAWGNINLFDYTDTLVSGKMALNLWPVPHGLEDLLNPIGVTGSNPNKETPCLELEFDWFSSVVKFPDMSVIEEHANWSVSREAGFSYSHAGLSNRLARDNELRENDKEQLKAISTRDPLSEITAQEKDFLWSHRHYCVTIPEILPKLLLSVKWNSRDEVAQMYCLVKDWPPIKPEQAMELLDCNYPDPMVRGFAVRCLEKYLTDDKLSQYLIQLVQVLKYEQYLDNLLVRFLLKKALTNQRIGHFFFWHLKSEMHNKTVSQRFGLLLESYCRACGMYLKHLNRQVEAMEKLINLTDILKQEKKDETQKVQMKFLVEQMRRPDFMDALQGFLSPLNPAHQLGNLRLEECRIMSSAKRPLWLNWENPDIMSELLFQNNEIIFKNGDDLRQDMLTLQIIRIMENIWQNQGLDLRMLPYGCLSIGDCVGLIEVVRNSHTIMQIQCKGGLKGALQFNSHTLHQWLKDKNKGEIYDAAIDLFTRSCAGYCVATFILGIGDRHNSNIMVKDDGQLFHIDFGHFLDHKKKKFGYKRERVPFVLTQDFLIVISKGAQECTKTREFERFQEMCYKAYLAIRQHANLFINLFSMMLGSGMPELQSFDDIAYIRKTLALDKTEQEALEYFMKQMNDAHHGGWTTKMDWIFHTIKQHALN
T11 sequence (Q9C098 whole entry): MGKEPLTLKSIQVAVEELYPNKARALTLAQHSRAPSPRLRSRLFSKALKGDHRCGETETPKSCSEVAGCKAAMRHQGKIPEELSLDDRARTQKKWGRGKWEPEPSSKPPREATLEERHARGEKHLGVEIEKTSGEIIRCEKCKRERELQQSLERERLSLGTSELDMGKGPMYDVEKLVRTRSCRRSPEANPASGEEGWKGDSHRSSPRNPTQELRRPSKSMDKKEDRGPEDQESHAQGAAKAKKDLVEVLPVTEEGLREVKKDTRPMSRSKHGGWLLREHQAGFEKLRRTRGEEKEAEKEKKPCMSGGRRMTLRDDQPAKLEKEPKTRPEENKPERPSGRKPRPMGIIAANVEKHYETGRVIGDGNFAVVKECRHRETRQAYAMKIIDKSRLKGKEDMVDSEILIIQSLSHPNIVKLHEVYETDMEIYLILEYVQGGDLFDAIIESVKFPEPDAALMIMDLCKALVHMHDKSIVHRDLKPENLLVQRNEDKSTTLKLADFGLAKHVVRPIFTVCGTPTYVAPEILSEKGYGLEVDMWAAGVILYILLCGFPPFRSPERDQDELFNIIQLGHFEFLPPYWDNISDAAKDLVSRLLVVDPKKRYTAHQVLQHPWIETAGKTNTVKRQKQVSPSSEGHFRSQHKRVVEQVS
EPHA7, sequence (Q15375 whole entry): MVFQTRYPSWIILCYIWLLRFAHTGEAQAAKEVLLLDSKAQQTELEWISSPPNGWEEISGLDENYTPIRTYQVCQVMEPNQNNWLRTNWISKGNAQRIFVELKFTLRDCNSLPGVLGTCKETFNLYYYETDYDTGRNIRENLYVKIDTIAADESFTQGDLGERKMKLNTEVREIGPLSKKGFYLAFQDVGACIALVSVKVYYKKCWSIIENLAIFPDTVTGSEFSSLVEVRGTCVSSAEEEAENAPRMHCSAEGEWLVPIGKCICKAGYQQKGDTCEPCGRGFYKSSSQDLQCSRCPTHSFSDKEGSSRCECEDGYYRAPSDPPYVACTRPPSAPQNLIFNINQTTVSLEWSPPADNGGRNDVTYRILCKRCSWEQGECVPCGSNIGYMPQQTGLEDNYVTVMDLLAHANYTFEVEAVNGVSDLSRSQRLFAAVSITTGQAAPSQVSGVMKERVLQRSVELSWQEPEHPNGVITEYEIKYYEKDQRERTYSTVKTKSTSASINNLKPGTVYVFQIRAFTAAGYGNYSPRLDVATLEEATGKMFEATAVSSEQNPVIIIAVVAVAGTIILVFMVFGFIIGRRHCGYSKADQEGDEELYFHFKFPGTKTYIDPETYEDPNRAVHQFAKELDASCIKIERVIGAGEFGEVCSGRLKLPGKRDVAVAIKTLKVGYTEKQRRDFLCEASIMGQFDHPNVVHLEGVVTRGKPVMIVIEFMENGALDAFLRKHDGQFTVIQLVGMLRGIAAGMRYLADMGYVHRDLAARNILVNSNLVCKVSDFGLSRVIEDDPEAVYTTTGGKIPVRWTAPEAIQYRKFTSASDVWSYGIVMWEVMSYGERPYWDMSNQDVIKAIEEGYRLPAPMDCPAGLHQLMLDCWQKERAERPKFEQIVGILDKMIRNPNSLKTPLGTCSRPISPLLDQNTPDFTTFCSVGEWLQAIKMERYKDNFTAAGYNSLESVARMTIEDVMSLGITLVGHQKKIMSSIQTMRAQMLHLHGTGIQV

For `[O-][S@@+](Cc1cncs1)C(c1ccccc1)c1ccccc1` [S-CE-123, (S)-5-((Benzhydrylsulfinyl)Methyl)Thiazole], the remaining binding at 2.8 µM (TLK2) was 95%, the remaining binding at 2.8 µM (BRSK2) was 100% and the remaining binding at 2.8 µM (FLT1) was 100%. It also gave a remaining binding at 2.8 µM (PKN1) of 100%, a remaining binding at 2.8 µM (PAK3) of 70% and a remaining binding at 2.8 µM (MET(Y1235D)) of 99%. The remaining binding at 2.8 µM (RIPK5) was 95%, the remaining binding at 2.8 µM [1] was 86% and the remaining binding at 2.8 µM (PIK3CA(E545A)) was 93%. It also gave a remaining binding at 2.8 µM (NEK7) of 100%, a remaining binding at 2.8 µM (FLT3(D835Y)) of 99% and a remaining binding at 2.8 µM (EPHA7) of 96%. The remaining binding at 2.8 µM (SGK) was 94%, the remaining binding at 2.8 µM (DRAK1) was 95% and the remaining binding at 2.8 µM (PCTK1) was 97%. The remaining binding at 2.8 µM [2] was 90%, the remaining binding at 2.8 µM (PIK4CB) was 94% and the remaining binding at 2.8 µM [3] was 100%. The remaining binding at 2.8 µM (CAMK2D) was 88%, the remaining binding at 2.8 µM (FLT3(R834Q)) was 90% and the remaining binding at 2.8 µM (TAOK1) was 100%. It also gave a remaining binding at 2.8 µM (CDK4-cyclinD1) of 100%, a remaining binding at 2.8 µM (IKK-beta) of 96% and a remaining binding at 2.8 µM (DCAMKL3) of 96%. It also gave a remaining binding at 2.8 µM (MAP3K4) of 84% and a remaining binding at 2.8 µM (CAMKK2) of 94%.
